Assay results published in ChEMBL document CHEMBL1147805, “A new non-azole inhibitor of ABA 8'-hydroxylase: effect of the hydroxyl group substituted for geminal methyl groups in the six-membered ring” (Bioorg Med Chem Lett, 2006).
Active and inactive are the calls of the source. No cut-off for these calls is given here.

How the values were obtained:
[1] = target: T1, Abscisic acid 8'-hydroxylase 3 (Arabidopsis thaliana, UniProt Q9FH76); assay: Inhibition of Arabidopsis recombinant CYP707A3
T1 sequence (Q9FH76 whole entry): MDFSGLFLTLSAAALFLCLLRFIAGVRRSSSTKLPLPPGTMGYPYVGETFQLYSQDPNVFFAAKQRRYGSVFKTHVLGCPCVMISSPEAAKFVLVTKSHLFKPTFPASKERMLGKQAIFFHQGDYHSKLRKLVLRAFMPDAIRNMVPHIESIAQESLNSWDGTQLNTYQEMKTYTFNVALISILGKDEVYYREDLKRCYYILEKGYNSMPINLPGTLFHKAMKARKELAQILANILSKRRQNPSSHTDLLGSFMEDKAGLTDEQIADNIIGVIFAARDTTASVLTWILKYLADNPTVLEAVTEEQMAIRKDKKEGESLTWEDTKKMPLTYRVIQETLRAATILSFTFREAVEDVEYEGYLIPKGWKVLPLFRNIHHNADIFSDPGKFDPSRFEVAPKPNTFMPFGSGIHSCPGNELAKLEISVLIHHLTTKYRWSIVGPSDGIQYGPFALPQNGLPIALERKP

Radish = assay: Induction of drought-stress tolerance in radish seedlings at 400 uM; format: functional, organism-based; conditions: Raphanus sativus
[2] = target: T1, Abscisic acid 8'-hydroxylase 3; assay: Activity against CYP707A3 by rice seedling elongation assay at 30 uM; format: functional; conditions: oryza sativa
[3] = target: T1, Abscisic acid 8'-hydroxylase 3; assay: Activity against CYP707A3 by rice seedling elongation assay at 1 uM; format: functional; conditions: oryza sativa

Compound | Ki [1] | Activity (Radish) | Activity [2] | Activity [3]
C[C@H]1CCCC(C)(C)[C@@]1(O)/C=C/C=C\C(=O)O | 1400 nM |  |  | 
C[C@H]1CCC[C@H](O)[C@@]1(O)/C=C/C=C\C(=O)O | 140 nM | Active | 96% | 
C[C@@H]1CCC[C@H](O)[C@@]1(O)/C=C/C=C\C(=O)O (racemic) |  | inactive |  | 
CC1=CC(=O)CC(C)(C)C1(O)/C=C/C(C)=C\C(=O)O (stereo unspecified) [ABSCISIC ACID] |  |  |  | 22%
